Our source for the pest or weed control, inhibition of growth and melting point values is US11185074B2, “Microbiocidal quinoline (thio)carboxamide derivatives” (SYNGENTA PARTICIPATIONS AG, priority 2017, dated 2021).

For data set [1], the system named is Fusarium culmorum. The data set can be described thus: whole plant or invertebrate. As to conditions: in Triticum aestivum, read-out: control of Fusarium culmorum. In kind it is in vivo, Fusarium culmorum on wheat spikelets cv. Monsun.
Data set [2] relates to Botryotinia fuckeliana (Botrytis cinerea). The data set can be described thus: Botryotinia fuckeliana (Botrytis cinerea) / liquid culture (gray mould). Particulars: 72 h, 20 ppm, liquid culture, inhibition of growth photometrically 3-4 days after application, compared to untreated control, read-out: control of Botryotinia fuckeliana. In kind it is cell-based.
In data set [3] the test system is Monographella nivalis (Microdochium nivale). The data set can be described thus: Monographella nivalis (Microdochium nivale) / liquid culture (foot rot cereals). The data set is classed as cell-based. Particulars: 96 h, inhibition of growth photometrically 4-5 days after application, compared to untreated control.
Data set [4] deals with Glomerella lagenarium (Colletotrichum lagenarium). The data set can be described thus: Glomerella lagenarium (Colletotrichum lagenarium) / liquid culture (anthracnose). In kind it is cell-based. As to conditions: Colletotrichum orbiculare; 20 ppm; liquid culture, inhibition of growth photometrically 3-4 days after application; compared to untreated control; read-out: control of Glomerella lagenarium.

In data set [5] the test system is Magnaporthe grisea (Pyricularia oryzae). The data set can be described thus: microbe, parasite or virus in culture. As to conditions: 72 h, read-out: control of Magnaporthe grisea. The data set is classed as cell-based.
Data set [6] deals with Gibberella zeae (Fusarium graminearum). The data set can be described thus: whole plant or invertebrate. In kind it is in vivo. As to conditions: in Triticum aestivum, 144 h, read-out: control of Gibberella zeae.
For data set [7], the system named is Fusarium culmorum. The data set can be described thus: microbe, parasite or virus in culture. In kind it is cell-based. Particulars: read-out: control of Fusarium culmorum.
The test system of the next data set is Sclerotinia sclerotiorum. The data set can be described thus: Sclerotinia sclerotiorum / liquid culture (cottony rot). As to conditions: 72 h, read-out: control of Sclerotinia sclerotiorum.

Structures are written as SMILES. Some results are limits rather than exact numbers.

Description for Sclerotinia sclerotiorum: Sclerotinia sclerotiorum/Liquid Culture (Cottony Rot)
Mycelia fragments of a newly grown liquid culture of the fungus are directly mixed into nutrient broth (Vogels broth). After placing a (DMSO) solution of test compound into a microtiter plate (96-well format) the nutrient broth containing the fungal material is added. The test plates are incubated at 24° C. and the inhibition of growth is determined photometrically 3-4 days after application.

For orientation: melting point means the temperature of the solid-liquid transition. On to `C=C(C)CC(C)(CC(=C)C)NC(=O)c1cnc2c(F)cccc2c1` [E-2, N-[1,3-dimethyl-1-(2-methylallyl)but-3-enyl]-8-fluoro-quinoline-3-carboxamide], for which the melting point was 116 to 118 °C. For the same molecule, the pest or weed control at 200 ppm with Fusarium culmorum [1] was not below 80%. Also, the inhibition of growth at 20 ppm in data set [2] was not below 80%. The same molecule registered an inhibition of growth at 20 ppm in data set [3] not below 80%. Also, in data set [4], the inhibition of growth at 20 ppm is not below 80%. Besides, in data set [5], the inhibition of growth at 20 ppm is not below 80%. Further, the pest or weed control at 200 ppm in data set [6] is not below 80%. Moreover, the inhibition of growth at 20 ppm in the data set with Fusarium culmorum [7] is not below 80%.

On to `C/C=C(\C)CC(C)(CC(C)C)NC(=O)c1cnc2c(F)cccc2c1` (stereo not drawn) [E-5], for which the pest or weed control at 200 ppm (with Fusarium culmorum [1]; in data set [6]) was not below 80% in each case. Besides, the inhibition of growth at 20 ppm (in [2]; in data set [3]; in [4]; in [5]; in the data set on Fusarium culmorum [7]) was not below 80% throughout.

The molecule `CC(C)=C(F)CC(C)(CC(C)C)NC(=O)c1cnc2c(F)cccc2c1` (stereo not drawn) [E-6] displayed a melting point of 119 to 121 °C. In addition, the pest or weed control at 200 ppm with Fusarium culmorum [1] was not below 80%. In data set [2], the inhibition of growth at 20 ppm is not below 80%. This molecule also returned an inhibition of growth at 20 ppm in data set [3] not below 80%. Moreover, the inhibition of growth at 20 ppm in data set [4] was not below 80%. Moreover, the inhibition of growth at 20 ppm in [5] is not below 80%. In addition, the pest or weed control at 200 ppm in data set [6] is not below 80%. Further, in the data set with Fusarium culmorum [7], the inhibition of growth at 20 ppm was not below 80%.

The molecule `CC(C)CC(CC(C)C)NC(=O)c1cnc2c(F)cccc2c1` [E-9] had a melting point of 170 to 172 °C. Besides, the pest or weed control at 200 ppm in the data set on Fusarium culmorum [1] was not below 80%. The inhibition of growth at 20 ppm in data set [2] was not below 80%. Also, the inhibition of growth at 20 ppm in [3] was not below 80%. For the same molecule, the inhibition of growth at 20 ppm in data set [4] is not below 80%. Moreover, the inhibition of growth at 20 ppm in data set [5] was not below 80%. Further, in [6], the pest or weed control at 200 ppm is not below 80%. The inhibition of growth at 20 ppm with Fusarium culmorum [7] was not below 80%.

Molecule `CC(C)(C)C(CCc1ccccc1)NC(=O)c1cnc2c(F)cccc2c1` (stereo not drawn) [E-14] returned a melting point of 55 to 65 °C. Besides, the pest or weed control at 200 ppm in the data set on Fusarium culmorum [1] was not below 80%. The inhibition of growth at 20 ppm in [2] was not below 80%. The molecule also came in with an inhibition of growth at 20 ppm in data set [3] not below 80%. In data set [4], the inhibition of growth at 20 ppm is not below 80%. Moreover, in [5], the inhibition of growth at 20 ppm was not below 80%. The pest or weed control at 200 ppm in data set [6] was not below 80%. The inhibition of growth at 20 ppm in the data set on Fusarium culmorum [7] is not below 80%.

On to `CC(C)=C(F)CC(CC(C)C)NC(=O)c1cnc2c(F)cccc2c1` (stereo not drawn) [E-18], for which the melting point lay within 75 to 76 °C. The pest or weed control at 200 ppm in the data set on Fusarium culmorum [1] was not below 80%. Moreover, the inhibition of growth at 20 ppm in data set [2] was not below 80%. Further, the inhibition of growth at 20 ppm in data set [3] was not below 80%. In addition, the inhibition of growth at 20 ppm in data set [4] is not below 80%. Besides, the inhibition of growth at 20 ppm in data set [5] was not below 80%. For the same molecule, in data set [6], the pest or weed control at 200 ppm is not below 80%. Also, in the data set on Fusarium culmorum [7], the inhibition of growth at 20 ppm is not below 80%.

The molecule `CC(C)(Cc1ccccc1)C(C)(C)NC(=O)c1cnc2c(F)cccc2c1` [E-21] came in with a melting point of 131 to 132 °C. Besides, in the data set with Fusarium culmorum [1], the pest or weed control at 200 ppm was not below 80%. In addition, the inhibition of growth at 20 ppm in [2] was not below 80%. This molecule also had an inhibition of growth at 20 ppm in data set [3] not below 80%. Besides, in data set [5], the inhibition of growth at 20 ppm was not below 80%. Moreover, the pest or weed control at 200 ppm in data set [6] was not below 80%. Moreover, the inhibition of growth at 20 ppm in the data set with Fusarium culmorum [7] was not below 80%.

Turning to `CC(C)(CCCc1ccccc1)NC(=O)c1cnc2c(F)cccc2c1` [E-23], the pest or weed control at 200 ppm (with Fusarium culmorum [1]; in data set [6]) was not below 80% throughout. Besides, the inhibition of growth at 20 ppm (in data set [2]; in data set [3]; in data set [4]; with Fusarium culmorum [7]) was not below 80% throughout.

For `CCC(CC)CC(C)(CC(F)(F)F)NC(=O)c1cnc2c(F)cccc2c1` (stereo not drawn) [E-45], the inhibition of growth at 20 ppm (in data set [2]; in [3]; in data set [4]; in [5]; in the data set with Fusarium culmorum [7]) was not below 80% throughout. In addition, the pest or weed control at 200 ppm in [6] was not below 80%.

For the molecule `CCCC(C)CC(C)(CC(F)(F)F)NC(=O)c1cnc2ccccc2c1` (stereo not drawn) [E-46], the pest or weed control at 200 ppm (in the data set with Fusarium culmorum [1]; in data set [6]) was not below 80% in each case. The inhibition of growth at 20 ppm (in [2]; in data set [4]; in the data set with Fusarium culmorum [7]) was not below 80% each time.

With `C=C(C)CC(C)(CC1CCCCC1)NC(=O)c1cnc2c(F)c(F)ccc2c1` (stereo not drawn) [E-48], the melting point was 115 to 117 °C. Moreover, in the data set with Fusarium culmorum [1], the pest or weed control at 200 ppm was not below 80%. Besides, the inhibition of growth at 20 ppm in data set [2] was not below 80%. Besides, the inhibition of growth at 20 ppm with Sclerotinia sclerotiorum is not below 80%. The inhibition of growth at 20 ppm in data set [3] is not below 80%. Besides, the inhibition of growth at 20 ppm in data set [4] was not below 80%. Besides, the inhibition of growth at 20 ppm in data set [5] was not below 80%. Further, the inhibition of growth at 20 ppm in the data set with Fusarium culmorum [7] was not below 80%.

`CC(CC1CC=CCC1)(CC(F)(F)F)NC(=O)c1cnc2c(F)cccc2c1` (stereo not drawn) [E-54] registered a melting point of 115 to 118 °C. Moreover, the pest or weed control at 200 ppm in the data set with Fusarium culmorum [1] was not below 80%. Moreover, the inhibition of growth at 20 ppm in data set [2] is not below 80%. For the same molecule, in the data set with Sclerotinia sclerotiorum, the inhibition of growth at 20 ppm was not below 80%. In data set [3], this molecule gave an inhibition of growth at 20 ppm not below 80%. In [4], the inhibition of growth at 20 ppm was not below 80%. Also, in [5], the inhibition of growth at 20 ppm is not below 80%. The inhibition of growth at 20 ppm in the data set on Fusarium culmorum [7] is not below 80%.

Molecule `CC(CC1CCCC1)(CC(F)(F)F)NC(=O)c1cnc2ccccc2c1` (stereo not drawn) [E-63] showed a melting point of 94 to 103 °C. Further, the pest or weed control at 200 ppm in the data set on Fusarium culmorum [1] was not below 80%. Further, the inhibition of growth at 20 ppm in [2] is not below 80%. In addition, in the data set on Sclerotinia sclerotiorum, the inhibition of growth at 20 ppm is not below 80%. The same molecule yielded an inhibition of growth at 20 ppm in [3] not below 80%. In addition, the inhibition of growth at 20 ppm in data set [4] is not below 80%. For the same molecule, the inhibition of growth at 20 ppm in [5] is not below 80%. Also, the inhibition of growth at 20 ppm with Fusarium culmorum [7] is not below 80%.

In turn, `Cc1cccc2cc(C(=O)NC(C)(CC3CCCC3)CC(F)(F)F)cnc12` (stereo not drawn) [E-64] showed a melting point of 108 to 116 °C. The pest or weed control at 200 ppm with Fusarium culmorum [1] is not below 80%. Also, in data set [2], the inhibition of growth at 20 ppm was not below 80%. In addition, in the data set on Sclerotinia sclerotiorum, the inhibition of growth at 20 ppm was not below 80%. The inhibition of growth at 20 ppm in data set [3] was not below 80%. Also, the inhibition of growth at 20 ppm in data set [4] was not below 80%. The inhibition of growth at 20 ppm in [5] is not below 80%. Besides, in the data set on Fusarium culmorum [7], the inhibition of growth at 20 ppm was not below 80%.

In the case of `CC1(C[C@](C)(CC(F)(F)F)NC(=O)c2cnc3c(F)cccc3c2)CC1` [F-1, 8-fluoro-N-[(1R)-3,3,3-trifluoro-1-methyl-1-[(1-methylcyclo-propyl)meth-yl]propyl] quinoline-3-carboxamide], the pest or weed control at 200 ppm (in the data set on Fusarium culmorum [1]; in [6]) was not below 80% in each case. Moreover, the inhibition of growth at 20 ppm (in [2]; in [3]; in data set [4]; in [5]; in the data set on Fusarium culmorum [7]) was not below 80% each time.

The molecule `C[C@](CC1CCCC1)(CC(F)(F)F)NC(=O)c1cnc2c(F)cccc2c1` [F-5, N-[(1S)-1-(cyclopentylmeth-yl)-3,3,3-trifluoro-1-methyl-propyl]-8-fluoro-quinoline-3-carboxamide] gave a melting point of 102 to 105 °C. Also, the pest or weed control at 200 ppm with Fusarium culmorum [1] is not below 80%. Besides, the inhibition of growth at 20 ppm in [2] is not below 80%. The inhibition of growth at 20 ppm with Sclerotinia sclerotiorum is not below 80%. For the same molecule, in [4], the inhibition of growth at 20 ppm was not below 80%. The inhibition of growth at 20 ppm in data set [5] was not below 80%. The inhibition of growth at 20 ppm in the data set on Fusarium culmorum [7] is not below 80%.
